From patent US20230093147A1, “METHODS AND COMPOSITIONS RELATING TO IMPROVED COMBINATION THERAPIES” (PRESIDENT AND FELLOWS OF HARVARD COLLEGE, priority 2020, published 2023)
Values joined by “and” are separate entries in the source; they are usually repeats but may differ in a detail not shown here. Equal entries are not always repeated.

Legend:
[1] = test system: 4T1 murine breast cancer cells; test: In vitro cellular inhibition (MTT) and synergy quantification; format: cell-based
Method: 4T1 cells were seeded in 96 well plates at a density of 500 cells/well. Cells were given 24 hours to adhere to the well plate. Afterwards, a series of ten drug or drug combination dilutions prepared in fresh media were administered to the cells, with a starting concentration of 100 μM. The drugs were incubated with the cells for 72 hours before the media was removed and replaced with 0.5 mg/ml of MTT reagent in media fresh media. The MTT reagent was left incubating with the cells for 4 hours, during which living cells metabolized the reagent to form solid formazan crystals. Afterwards, the MTT reagent in media was removed, and the crystallized formazan was dissolved in DMSO. The plate is shaken at 300 rpm for 15 minutes to fully dissolve the formazan crystals, and absorbance was measured at 590 nm via Spectramax i3 plate reader. The fraction of cells inhibited at a certain drug concentration was calculated by: […]
where A is the average absorbance of the treated wells, A0 is the average absorbance of the blank wells with DMSO, and AC is the average absorbance of the control untreated wells. The IC50 values for each treatment was then determined through fitting of the Hill equation for dose-response in GraphPad™. The Hill equation is given as follows: […]
with X as the drug concentration and Y as the fractional inhibition, and m is known as the Hill coefficient and is determined according to the fit.
To evaluate drug efficacy against 4T1, drugs were evaluated as single drugs and as combination treatments with DOX. Synergy was quantified using the combination index (CI)^10. The formula for CI is as follows:
Where [AC]50 and [BC]50 represent the IC50 of drugs A and B when given in combination, and the denominator represents the IC50 of single drugs A and B. CI<1 indicates synergy, while a CI=1 indicates additive effects, and a CI>1 indicates antagonism.

4T1 cells = test: Calreticulin exposure on 4T1 cells; format: cell-based, murine; conditions: 10 μM DOX, compared to untreated controls
Method: Cells for antibody staining and flow cytometry studies were plated in 6-well plates in 3 ml of media and allowed to adhere overnight. […] Treatment was administered approximately 24 h after plating. Cells were harvested using 0.5 ml of trypsin and resuspended to establish 10^6 cells in 100 μl of cell staining buffer. Cells were washed once and incubated at room temperature with 1% CD16/32 in 100 μl of cell staining buffer. After another wash, cells were incubated for 30 min on ice with fluorescently labeled antibodies (Table 12) to distinguish tumor antigens or characteristic markers of immune cell subtypes. Antibody-stained cells were then washed twice before analysis with a BD LSRII flow cytometer.

[2] = Drug release from liposomes into PBS at 37° C. over 24 hours, Example 1; format: physicochemical; conditions: release from liposomal formulation
Method: The release profile of drug from liposomes was studied using Amicon Ultra mini dialysis filters supplied by Millipore Sigma (Burlington, Mass.) at sink conditions^59. A tenfold dilution of each liposomal formulation in PBS was kept in the mini dialysis filter at 37° C. above a 1.1 ml PBS reservoir. Samples were placed on a plate shaker for constant agitation. […] All PBS reservoirs were analyzed for released drug content using HPLC.

[3] = free drugs and free drug combinations
[4] = free drugs and free drug combinations, 72 hours, 500 cells/well
[5] = Mus musculus, 72 h, free drugs and free drug combinations, 500 cells/well

Row | IC50 [1, 4] | IC50 [1, 5] | IC50 ([1]; Mus musculus, free drug) | IRIN released within 24 hours [2] | Structure (SMILES) | Hill coefficient, HC [1, 3] | fold increase in calreticulin exposure on 4T1 cells (4T1 cells)
1 | 0.036 µM | – | – | – | COc1cccc2c1C(=O)c1c(O)c3c(c(O)c1C2=O)C[C@@](O)(C(=O)CO)C[C@@H]3O[C@H]1C[C@H](N)[C@H](O)[C@H](C)O1 [DOX, Doxorubicin] | 0.75 ± 0.04 | 1.8 fold
2 | – | 0.012 ± 0.0003 µM | 0.012 ± 0.0003 µM | – | Nc1ccn([C@@H]2O[C@H](CO)[C@@H](O)C2(F)F)c(=O)n1 [GEM, gemcitabine] | 1.8±0.09 and 1.83 ± 0.09 | –
3 | 14 ± 0.7 µM | 14 µM | – | less than 40% | CCc1c2c(nc3ccc(OC(=O)N4CCC(N5CCCCC5)CC4)cc13)-c1cc3c(c(=O)n1C2)COC(=O)[C@]3(O)CC [IRIN, irinotecan] | – | –
